Data taken from ChEMBL document CHEMBL6134827, “The discovery of novel antimicrobial peptides against drug-resistant bacteria based on fragments fusion strategy” (Eur J Med Chem, 2025).
Calls of active or inactive are those of the source. No cut-off for these calls is given here. Non-standard residues stand in square brackets, D forms with d. Residues, ends and D or L forms follow the SMILES beside them. Dab = NCC[C@H](N)C(=O)O

Tests used:
Staphylococcus aureus [1] = assay: Induction of morphological changes in multidrug resistant Staphylococcus aureus assessed as presence of cellular debris at 16 microg/ml incubated for 1 hrs by SEM analysis; format: functional, organism-based; conditions: dose 16.0 µg/ml
Pseudomonas aeruginosa [2] = assay: Induction of morphological changes in multidrug resistant Pseudomonas aeruginosa assessed as surface roughening at 16 microg/ml incubated for 1 hrs by SEM analysis; format: functional, organism-based; conditions: dose 16.0 µg/ml
Pseudomonas aeruginosa [3] = assay: Antibacterial activity against multidrug resistant Pseudomonas aeruginosa assessed as reduction in bacterial growth at 32 microg/mL by bactericidal kinetic assay; format: functional, organism-based; conditions: dose 32.0 µg/ml, time 0.5-4 hrs
Pseudomonas aeruginosa [4] = assay: In vivo antibacterial activity against multidrug resistant Pseudomonas aeruginosa infected in acute peritonitis C57BL/6 mouse model assessed as decrease in IL-6 level in serum at 5 to 20 mg/kg, ip measured after 12 hrs by ELISA; format: functional, organism-based; conditions: dose 5-20 mg/kg
Pseudomonas aeruginosa [5] = assay: Antimicrobial activity against multidrug resistant Pseudomonas aeruginosa at 1.9 to 500 microg/ml in presence of lipopolysaccharide by checkerboard microdilution assay; format: functional, organism-based; conditions: dose 1.9-500 µg/ml
Pseudomonas aeruginosa [6] = assay: In vivo antibacterial activity against multidrug resistant Pseudomonas aeruginosa infected in acute peritonitis C57BL/6 mouse model assessed as reduction in pulmonary edema at 5 to 20 mg/kg, ip measured after 12 hrs by H and E staining based analysis; format: functional, organism-based; conditions: dose 5-20 mg/kg
Cell membrane [7] = assay: Induction of cytoplasmic membrane depolarization in multidrug resistant Pseudomonas aeruginosa assessed as increase in fluorescence intensity at MIC concentration measured within 1 min by DISC3-5 dye based fluorescence analysis; format: subcellular
Cell membrane [8] = assay: Disruption of cell membrane in multidrug resistant Staphylococcus aureus assessed as increase in red fluorescence at 16 microg/mL incubated after 2 hrs by SYTO9/PI double staining based fluorescence confocal microscopic analysis; format: subcellular; conditions: dose 16.0 µg/ml
[9] = Toxicity in female C57BL/6 mouse assessed as histopathological change in spleen at 20 mg/kg, ip administered daily and measured for 5 days by H and E staining based analysis; format: organism-based; conditions: in vivo, 120 h, time 5 day
[10] = Cytotoxicity against HEK293T cells assessed as survival rate at 64 microg/ml measured after 24 hrs by CCK-8 assay relative to control; format: toxicity, cell-based, HEK-293T; conditions: human, at 64 µg/mL, read-out: Survival
Staphylococcus aureus [11] = assay: Antimicrobial activity against Staphylococcus aureus ATCC 29213 assessed as inhibition of visible microbial growth incubated for 18 hrs by broth microdilution method; format: functional
Pseudomonas aeruginosa [12] = assay: In vivo antibacterial activity against multidrug resistant Pseudomonas aeruginosa infected in acute peritonitis C57BL/6 mouse model assessed as decrease in TNF-alpha level in serum at 5 to 20 mg/kg, ip measured after 12 hrs by ELISA; format: functional, organism-based; conditions: dose 5-20 mg/kg
[13] = Cytotoxicity against human BEAS-2B cells assessed as survival rate at 64 microg/ml measured after 24 hrs by CCK-8 assay relative to control; format: toxicity, cell-based; conditions: at 64 µg/mL, read-out: Survival
[14] = Nephrotoxicity in female C57BL/6 mouse assessed as change in BUN level at 20 mg/kg, ip administered daily and measured for 5 days; format: toxicity, organism-based; conditions: in vivo, 120 h, time 5 day
[15] = Toxicity in female C57BL/6 mouse assessed as histopathological change in lung at 20 mg/kg, ip administered daily and measured for 5 days by H and E staining based analysis; format: organism-based; conditions: in vivo, 120 h, time 5 day
[16] = Stability in 25% human plasma assessed as compound remaining measured after 24 hrs by RP-HPLC analysis; format: ADME, cell-free; conditions: 25% plasma, read-out: Stability
Staphylococcus aureus [17] = assay: Drug resistance, ratio of MIC for Staphylococcus aureus ATCC 29213 after 16 passages exposure to MIC for Staphylococcus aureus ATCC 29213 after first exposure; format: functional
Staphylococcus aureus [18] = assay: Antibacterial activity against multidrug resistant Staphylococcus aureus assessed as reduction in bacterial growth at 32 microg/mL by bactericidal kinetic assay; format: functional, organism-based; conditions: dose 32.0 µg/ml, time 0.5-4 hrs
Pseudomonas aeruginosa [19] = assay: Antimicrobial activity against multidrug resistant Pseudomonas aeruginosa assessed as inhibition of bacterial growth at >=125 microg/ml in presence of lipoteichoic acid by checkerboard microdilution assay; format: functional, organism-based; conditions: dose >= 125.0 µg/ml
Pseudomonas aeruginosa [20] = assay: Drug resistance, ratio of MIC for multidrug resistant Pseudomonas aeruginosa after 16 passages to MIC for multidrug resistant Pseudomonas aeruginosa after first exposure; format: functional
Acinetobacter baumannii = assay: Antimicrobial activity against multidrug resistant Acinetobacter baumannii assessed as inhibition of visible microbial growth incubated for 18 hrs by broth microdilution method; format: functional
Cell membrane [21] = assay: Induction of cytoplasmic membrane depolarization in multidrug resistant Pseudomonas aeruginosa assessed as increase in fluorescence intensity measured for 12 min by DISC3-5 dye based fluorescence analysis; format: subcellular; conditions: dose 4-32 µg/ml
Staphylococcus aureus [22] = assay: Antimicrobial activity against multidrug resistant Staphylococcus aureus assessed as inhibition of visible microbial growth incubated for 18 hrs by broth microdilution method; format: functional
[23] = Hepatotoxicity in female C57BL/6 mouse assessed as change in ALT level at 20 mg/kg, ip administered daily and measured for 5 days; format: toxicity, organism-based; conditions: in vivo, 120 h, time 5 day
[24] = Toxicity in female C57BL/6 mouse assessed as effect on body weight at 20 mg/kg, ip administered daily and measured for 5 days; format: organism-based; conditions: in vivo, 120 h, time 5 day
[25] = Cytotoxicity against human BEAS-2B cells assessed as inhibition of cell growth measured after 24 hrs by CCK-8 assay; format: toxicity, cell-based
Pseudomonas aeruginosa [26] = assay: Induction of morphological changes in multidrug resistant Pseudomonas aeruginosa assessed as presence of cellular debris at 16 microg/ml incubated for 1 hrs by SEM analysis; format: functional, organism-based; conditions: dose 16.0 µg/ml
Cell membrane [27] = assay: Induction of outer cell membrane permeabilization in multidrug resistant Pseudomonas aeruginosa assessed as increase in fluorescence intensity at >16 microg/ml measured for 12 mins by NPN uptake assay; format: subcellular; conditions: dose > 16.0 µg/ml
Staphylococcus aureus [28] = assay: Induction of morphological changes in multidrug resistant Staphylococcus aureus assessed as effect on cell integrity at 16 microg/ml incubated for 1 hrs by SEM analysis; format: functional, organism-based; conditions: dose 16.0 µg/ml
[29] = Toxicity in female C57BL/6 mouse assessed as histopathological change in heart at 20 mg/kg, ip administered daily and measured for 5 days by H and E staining based analysis; format: organism-based; conditions: in vivo, 120 h, time 5 day
Pseudomonas aeruginosa [30] = assay: Antimicrobial activity against multidrug resistant Pseudomonas aeruginosa assessed as inhibition of visible microbial growth incubated for 18 hrs by broth microdilution method; format: functional
Pseudomonas aeruginosa [31] = assay: In vivo antibacterial activity against multidrug resistant Pseudomonas aeruginosa infected in acute peritonitis C57BL/6 mouse model assessed as reduction in bacterial load in liver at 10 to 20 mg/kg, ip measured after 12 hrs; format: functional, organism-based; conditions: dose 10-20 mg/kg
[32] = Toxicity in female C57BL/6 mouse assessed as effect on body weight at 5 to 20 mg/kg, ip administered daily and measured for 5 days; format: organism-based; conditions: in vivo, 120 h, dose 5-20 mg/kg, time 5 day
Pseudomonas aeruginosa [33] = assay: Antimicrobial activity against multidrug resistant Pseudomonas aeruginosa at 1.9 to 500 microg/ml in presence of phosphatidylcholine by checkerboard microdilution assay; format: functional, organism-based; conditions: dose 1.9-500 µg/ml
Pseudomonas aeruginosa [34] = assay: In vivo antibacterial activity against multidrug resistant Pseudomonas aeruginosa infected in acute peritonitis C57BL/6 mouse model assessed as increase in mouse survival at 5 to 20 mg/kg, ip measured after 12 hrs; format: functional, organism-based; conditions: dose 5-20 mg/kg
Escherichia coli [35] = assay: Antimicrobial activity against multidrug resistant Escherichia coli assessed as inhibition of visible microbial growth incubated for 18 hrs by broth microdilution method; format: functional
Escherichia coli [36] = assay: Antimicrobial activity against Escherichia coli ATCC 25922 assessed as inhibition of visible microbial growth incubated for 18 hrs by broth microdilution method; format: functional

For `CC(C)C[C@H](NC(=O)CN)C(=O)N[C@@H](CCCNC(=N)N)C(=O)N[C@@H](CCN)C(=O)N[C@@H](Cc1c[nH]c2ccccc12)C(=O)N[C@@H](CC(C)C)C(=O)N[C@@H](CCCNC(=N)N)C(=O)N[C@@H](CCN)C(=O)N[C@@H](Cc1ccccc1)C(=O)N[C@@H](CCN)C(=O)N[C@@H](CCN)C(=O)N[C@@H](Cc1ccccc1)C(=O)N[C@@H](Cc1c[nH]c2ccccc12)C(=O)O` (H-GLR[Dab]WLR[Dab]F[Dab][Dab]FW-OH), the Activity (Staphylococcus aureus [1]) was “Active”, the Activity (Pseudomonas aeruginosa [2]) was “Active” and the Activity (Pseudomonas aeruginosa [3]) was “Time-dependent-effect”. For the same compound, the Activity (Pseudomonas aeruginosa [4]) was “Active”, the Activity (Pseudomonas aeruginosa [5]) was “inactive” and the Activity (Pseudomonas aeruginosa [6]) was “Active”. The Activity (Cell membrane [7]) was “Active; Maximal Depolarization Observed”, the Activity (Cell membrane [8]) was “Active” and the Activity [9] was “Non-toxic”. For the same compound, the viability at 24 h, 64 µg/mL [10] was over 80%, the MIC (Staphylococcus aureus [11]) was 4.8 µM and the Activity (Pseudomonas aeruginosa [12]) was “Active”. For the same compound, the viability at 24 h, 64 µg/mL [13] was over 80%, the Activity [14] was “Non-toxic” and the Activity [15] was “Non-toxic”. For the same compound, the remaining at 24 h [16] was 40%, the Ratio (Staphylococcus aureus [17]) was under 2 and the Activity (Staphylococcus aureus [18]) was “Time-dependent-effect”. For the same compound, the Activity (Pseudomonas aeruginosa [19]) was “Active; Modest Inhibition Observed”, the Ratio (Pseudomonas aeruginosa [20]) was under 2 and the MIC (Acinetobacter baumannii) was 4.8 µM. For the same compound, the Activity (Cell membrane [21]) was “Dose-dependent-effect”, the MIC (Staphylococcus aureus [22]) was 4.8 µM and the Activity [23] was “Non-toxic”. The Activity [24] was “Toxic”, the CC50 at 24 h [25] was over 64 µg/mL and the Activity (Pseudomonas aeruginosa [26]) was “Active”. For the same compound, the Activity (Cell membrane [27]) was “Active”, the Activity (Staphylococcus aureus [28]) was “Active” and the Activity [29] was “Non-toxic”. The MIC (Pseudomonas aeruginosa [30]) was 4.8 µM, the Activity (Pseudomonas aeruginosa [31]) was “Active” and the Activity [32] was “Non-toxic”. The Activity (Pseudomonas aeruginosa [33]) was “Active”, the Activity (Pseudomonas aeruginosa [34]) was “Active” and the MIC (Escherichia coli [35]) was 4.8 µM. For the same compound, the MIC (Escherichia coli [36]) was 4.8 µM.
